Data: patent US20260364145A1, “MODIFIED CAVEOLIN-1 PEPTIDE FORMULATIONS AND METHODS OF MANUFACTURING AND USE THEREOF” (REIN THERAPEUTICS, INC., priority 2023, published 2026)
“And” between values parts separate entries of the source, which are not always exact repeats. Equal entries are not always repeated. Where two headings read alike, the source gives them in different places. Non-standard residues stand in square brackets, D forms with d. Residues, ends and D or L forms follow the SMILES beside them.

Experiments:
[1] = Aqueous solubility; type: physicochemical
[2] = APi2355 concentrations in BALF and tissues at 42 days post-treatment (LC/MS/MS); type: in vivo, rat (Sprague Dawley); details: for BALF concentration / Heart concentration / Kidney concentration / Liver concentration / Lung concentration / Skin concentration: SC 2.0 mg/kg, listed as APi2335, 2 mg/kg, 60480 min; for concentration at 1008 h: rat, sc, 2 mg/kg
[3] = Plasma pharmacokinetics after single-dose subcutaneous administration; type: in vivo, rat (Sprague Dawley); details: for plasma concentration / concentration at 1 h / concentration at 2 h / concentration at 4 h / concentration at 8 h / concentration at 24 h / concentration at 48 h / concentration at 96 h / concentration at 168 h / concentration at 240 h / concentration at 336 h / concentration at 528 h / concentration at 696 h / concentration at 840 h / concentration at 1008 h: SC 2.0 mg/kg, 2 mg/kg; for concentration at 1 h / concentration at 2 h / concentration at 4 h / concentration at 8 h / concentration at 24 h / concentration at 48 h / concentration at 96 h / concentration at 168 h / concentration at 240 h / concentration at 336 h / concentration at 528 h / concentration at 696 h / concentration at 840 h / concentration at 1008 h: rat, plasma, sc
[4] = individual rats, Group 1, MSP #3 (W/O/W)
[5] = individual rats, Group 2, MSP #5 (S/O/W)

aqueous solubility [1]: relatively low aqueous solubility
concentration at 1008 h ([2]; balf, mean, Group 1, MSP #3 (W/O/W), read-out: BALF concentration, Avg.): 2.11 ng/mL
concentration at 1008 h ([2]; balf, mean, Group 2, MSP #5 (S/O/W), read-out: BALF concentration, Avg.): 1.27 ng/mL
concentration at 1008 h ([2]; heart, mean, Group 1, MSP #3 (W/O/W), read-out: Heart concentration, Avg.): 9.35 ng/g
concentration at 1008 h ([2]; heart, mean, Group 2, MSP #5 (S/O/W), read-out: Heart concentration, Avg.): 12.9 ng/g
concentration at 1008 h ([2]; injection site skin, injection site skin, mean, Group 1, MSP #3 (W/O/W), read-out: Skin concentration, Avg.): 18.6 ng/g
concentration at 1008 h ([2]; injection site skin, injection site skin, mean, Group 2, MSP #5 (S/O/W), read-out: Skin concentration, Avg.): 4.93 ng/g
concentration at 1008 h ([2]; kidney, individual rats, Group 2, MSP #5 (S/O/W), read-out: Kidney concentration): 33.1 ng/g
concentration at 1008 h ([2]; kidney, mean, Group 1, MSP #3 (W/O/W), read-out: Kidney concentration, Avg.): 55.7 ng/g
concentration at 1008 h ([2]; kidney, mean, Group 2, MSP #5 (S/O/W), read-out: Kidney concentration, Avg.): 38.2 ng/g
concentration at 1008 h ([2]; liver, mean, Group 1, MSP #3 (W/O/W), read-out: Liver concentration, Avg.): 2.62 ng/g
concentration at 1008 h ([2]; liver, mean, Group 2, MSP #5 (S/O/W), read-out: Liver concentration, Avg.): 4.09 ng/g
concentration at 1008 h ([2]; lung, individual rats, Group 2, MSP #5 (S/O/W), read-out: Lung concentration): 35.9 ng/g
concentration at 1008 h ([2]; lung, mean, Group 1, MSP #3 (W/O/W), read-out: Lung concentration, Avg.): 40.3 ng/g
concentration at 1008 h ([2]; lung, mean, Group 2, MSP #5 (S/O/W), read-out: Lung concentration, Avg.): 38.1 ng/g
plasma concentration ([3]; 1 hr, individual rats, Group 1, MSP #3 (W/O/W), 60 min): 16.02 ng/mL and 311.08 ng/mL
plasma concentration ([3]; 2 hr, individual rats, Group 1, MSP #3 (W/O/W), 120 min): 350.92 ng/mL and 558.41 ng/mL
plasma concentration ([3]; 4 hr, individual rats, Group 1, MSP #3 (W/O/W), 240 min): 501.64 ng/mL and 36.54 ng/mL
plasma concentration ([3]; 8 hr, individual rats, Group 1, MSP #3 (W/O/W), 480 min): 39.13 ng/mL and 12.62 ng/mL
plasma concentration ([3]; 1 day, individual rats, Group 1, MSP #3 (W/O/W), 1440 min): 34.98 ng/mL and 10.17 ng/mL
plasma concentration ([3]; 2 day, individual rats, Group 1, MSP #3 (W/O/W), 2880 min): 3.46 ng/mL
plasma concentration ([3]; 4 day, individual rats, Group 1, MSP #3 (W/O/W), 5760 min): 1.90 ng/mL
plasma concentration ([3]; 7 day, individual rats, Group 1, MSP #3 (W/O/W), 10080 min): 5.66 ng/mL
plasma concentration ([3]; 10 day, individual rats, Group 1, MSP #3 (W/O/W), 14400 min): 2.17 ng/mL
plasma concentration ([3]; 14 day, individual rats, Group 1, MSP #3 (W/O/W), 20160 min): 6.77 ng/mL and 6.89 ng/mL
plasma concentration ([3]; 22 day, individual rats, Group 1, MSP #3 (W/O/W), 31680 min): 7.52 ng/mL and 9.84 ng/mL
plasma concentration ([3]; 29 day, individual rats, Group 1, MSP #3 (W/O/W), 41760 min): 0.91 ng/mL and 1.57 ng/mL
plasma concentration ([3]; 35 day, individual rats, Group 1, MSP #3 (W/O/W), 50400 min): 0.32 ng/mL and 0.48 ng/mL
plasma concentration ([3]; 42 day, individual rats, Group 1, MSP #3 (W/O/W), 60480 min): 0.11 ng/mL and 4.85 ng/mL
fraction of total exposure in the first 3 weeks after SC administration ([3]; first 3 weeks, SC 2.0 mg/kg APi2355): Approximately ⅔
concentration at 1 h ([3]; 1 hr, mean, Group 1, MSP #3 (W/O/W)): 157 ng/mL
concentration at 1 h ([3]; 1 hr, mean, Group 2, MSP #5 (S/O/W)): 175 ng/mL
concentration at 2 h ([3]; 2 hr, mean, Group 1, MSP #3 (W/O/W)): 198 ng/mL
concentration at 2 h ([3]; 2 hr, mean, Group 2, MSP #5 (S/O/W)): 287 ng/mL
concentration at 4 h ([3]; 4 hr, mean, Group 1, MSP #3 (W/O/W)): 185 ng/mL
concentration at 4 h ([3]; 4 hr, mean, Group 2, MSP #5 (S/O/W)): 195 ng/mL
concentration at 8 h ([3]; 8 hr, mean, Group 1, MSP #3 (W/O/W)): 195 ng/mL
concentration at 8 h ([3]; 8 hr, mean, Group 2, MSP #5 (S/O/W)): 130 ng/mL
concentration at 24 h ([3]; 1 day, mean, Group 1, MSP #3 (W/O/W)): 10.7 ng/mL
concentration at 24 h ([3]; 1 day, mean, Group 2, MSP #5 (S/O/W)): 9.53 ng/mL
concentration at 48 h ([3]; 2 day, mean, Group 1, MSP #3 (W/O/W)): 3.2 ng/mL
concentration at 48 h ([3]; 2 day, mean, Group 2, MSP #5 (S/O/W)): 5.23 ng/mL
concentration at 96 h ([3]; 4 day, mean, Group 1, MSP #3 (W/O/W)): 3.22 ng/mL
concentration at 96 h ([3]; 4 day, mean, Group 2, MSP #5 (S/O/W)): 3.69 ng/mL
concentration at 168 h ([3]; 7 day, mean, Group 1, MSP #3 (W/O/W)): 3.34 ng/mL
concentration at 168 h ([3]; 7 day, mean, Group 2, MSP #5 (S/O/W)): 3.37 ng/mL
concentration at 240 h ([3]; 10 day, mean, Group 1, MSP #3 (W/O/W)): 5.22 ng/mL
concentration at 240 h ([3]; 10 day, mean, Group 2, MSP #5 (S/O/W)): 10.5 ng/mL
concentration at 336 h ([3]; 14 day, individual rats, Group 2, MSP #5 (S/O/W), read-out: plasma concentration): 0.98 ng/mL
concentration at 336 h ([3]; 14 day, mean, Group 1, MSP #3 (W/O/W), read-out: plasma concentration, Avg.): 5.41 ng/mL
concentration at 336 h ([3]; 14 day, mean, Group 2, MSP #5 (S/O/W), read-out: plasma concentration, Avg.): 1.14 ng/mL
concentration at 528 h ([3]; 22 day, mean, Group 1, MSP #3 (W/O/W)): 6.35 ng/mL
concentration at 528 h ([3]; 22 day, mean, Group 2, MSP #5 (S/O/W)): 5.26 ng/mL
concentration at 696 h ([3]; 29 day, mean, Group 1, MSP #3 (W/O/W)): 2.53 ng/mL
concentration at 696 h ([3]; 29 day, mean, Group 2, MSP #5 (S/O/W)): 2 ng/mL
concentration at 840 h ([3]; 35 day, mean, Group 1, MSP #3 (W/O/W)): 0.57 ng/mL
concentration at 840 h ([3]; 35 day, mean, Group 2, MSP #5 (S/O/W)): 0.26 ng/mL
concentration at 1008 h ([3]; 42 day, mean, Group 1, MSP #3 (W/O/W)): 1.2 ng/mL
concentration at 1008 h ([3]; 42 day, mean, Group 2, MSP #5 (S/O/W)): 0.72 ng/mL
SMILES: CC(=O)N[C@H](C)C(=O)N[C@H](C)C(=O)N[C@@H](CCC(=O)O)C(=O)NCC(=O)N[C@@H](CCCCN)C(=O)N[C@@H](C)C(=O)N[C@@H](CO)C(=O)N[C@@H](Cc1ccccc1)C(=O)N[C@H](C(=O)N[C@H](C(=O)N[C@@H](Cc1ccccc1)C(=O)N[C@H](C(=O)N[C@H](C(=O)N[C@H](C(=O)N[C@@H](CCCCN)C(=O)NCC(=O)N[C@@H](CO)C(=O)N[C@H](C)C(=O)N[C@H](C)C(N)=O)[C@@H](C)O)C(C)C)[C@@H](C)O)[C@@H](C)O)[C@@H](C)O [APi2355, Ac-aaEGKASFTTFTVTKGSaa-NH2] (Ac-[dA][dA]EGKASFTTFTVTKGS[dA][dA]-NH2)
BALF concentration [2, 4]: 5.67 ng/mL and 1.45 ng/mL and 1.89 ng/mL and 1.47 ng/mL and 0.63 ng/mL and 1.53 ng/mL
Heart concentration [2, 4]: 10.46 ng/g and 13.81 ng/g and 8.97 ng/g and 11.09 ng/g and 3.41 ng/g and 8.39 ng/g
Kidney concentration [2, 4]: 63.91 ng/g and 53.55 ng/g and 30.02 ng/g and 62.91 ng/g and 57.32 ng/g and 66.29 ng/g
Liver concentration [2, 4]: 5.46 ng/g and 1.23 ng/g and 0.69 ng/g and 1.85 ng/g and 3.65 ng/g and 2.86 ng/g
Lung concentration [2, 4]: 37.40 ng/g and 29.17 ng/g and 36.51 ng/g and 62.92 ng/g and 36.86 ng/g and 38.80 ng/g
BALF concentration [2, 5]: 0.45 ng/mL and 0.23 ng/mL and 0.70 ng/mL and 0.52 ng/mL and 4.10 ng/mL and 2.17 ng/mL and 0.71 ng/mL
Heart concentration [2, 5]: 14.37 ng/g and 14.17 ng/g and 9.32 ng/g and 7.53 ng/g and 15.87 ng/g and 12.57 ng/g and 16.18 ng/g
Kidney concentration [2, 5]: 31.78 ng/g and 41.08 ng/g and 52.67 ng/g and 38.43 ng/g and 33.98 ng/g and 36.28 ng/g
Liver concentration [2, 5]: 8.34 ng/g and 8.26 ng/g and 0.24 ng/g and 0.47 ng/g and 1.33 ng/g and 4.81 ng/g and 5.22 ng/g
Lung concentration [2, 5]: 35.15 ng/g and 31.08 ng/g and 28.00 ng/g and 53.76 ng/g and 47.20 ng/g and 35.92 ng/g
Skin concentration ([2]; injection site skin, individual rats, Group 1, MSP #3 (W/O/W)): 29.72 ng/g and 13.12 ng/g and 14.02 ng/g and 20.81 ng/g and 2.28 ng/g and 31.92 ng/g
Skin concentration ([2]; injection site skin, individual rats, Group 2, MSP #5 (S/O/W)): 4.08 ng/g and 4.10 ng/g and 2.92 ng/g and 3.69 ng/g and 3.40 ng/g and 14.71 ng/g and 1.60 ng/g
